Test results reported in US20240417410A1, “TRICYCLIC COMPOUNDS FOR THE TREATMENT OF CANCER” (Hoffmann-La Roche Inc., priority 2023, published 2024).

How the values were obtained:
[1] = tested on: SW620 cells (KRAS G12V); test: Cell viability assay (Cell Counting Kit-8, 3-day); assay type: cell-based, human; details: Homo sapiens, SW-620; SW620, 72 hrs incubation
Summary of the method: (§1)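 Read-out is CCK-8 absorbance (OD450 minus OD650, 2 hrs after reagent), reflecting NADPH after 72 hrs of compound exposure in 0.5% DMSO. Seeding density was 5,000 cells/well for NCI-H358 and 2,000 for AGS and SW620. IC50 derived by 4-parameter sigmoidal fitting.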

[2] = tested on: AGS cells (KRAS G12D); test: Cell viability assay (Cell Counting Kit-8, 3-day); assay type: cell-based, human; details: Homo sapiens, 72 h, 72 hrs incubation
Summary of the method: as §1

[3] = tested on: NCI-H358 cells (KRAS G12C); test: Cell viability assay (Cell Counting Kit-8, 3-day); assay type: cell-based, human; details: Homo sapiens, NCI-H358, 72 h, NCI-H358, 72 hrs incubation
Summary of the method: as §1

[4] = tested on: phosphorylation of ERK, KRAS G12C in NCI-H358 cells; test: pERK inhibition assay; assay type: cell-based; details: Homo sapiens, NCI-H358, 4 h
Summary of the method: (§2)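 Phospho-ERK quantified by in-cell ELISA with TMB read-out at OD450 following 4 h compound exposure (final 0.5% DMSO). Cell lines were SW620 (KRAS G12V), AGS (G12D) and NCI-H358 (G12C), grown in RPMI-1640 with 10% FBS. A 4-parameter sigmoidal model gave the IC50.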

[5] = tested on: phosphorylation of ERK, KRAS G12V in SW620; test: pERK inhibition assay; assay type: cell-based; details: Homo sapiens, SW-620, 4 h, SW620 cells
Summary of the method: as §2

[6] = tested on: phosphorylation of ERK, KRAS G12D in AGS cells; test: pERK inhibition assay; assay type: cell-based; details: Homo sapiens, AGS, 4 h
Summary of the method: as §2

[7] = biological target: KRAS G12C-BRAF complex (Homo sapiens (Human), UniProt P01116+P62937, G12C); test: KRAS-BRAF with CYPA (500 nM) interaction assay (TR-FRET, Example 136); assay type: biochemical; details: KRAS G12C-BRAF disruption
KRAS G12C-BRAF complex, sequence (P01116-2 other isoform, or with tags, fused parts or gaps G12C): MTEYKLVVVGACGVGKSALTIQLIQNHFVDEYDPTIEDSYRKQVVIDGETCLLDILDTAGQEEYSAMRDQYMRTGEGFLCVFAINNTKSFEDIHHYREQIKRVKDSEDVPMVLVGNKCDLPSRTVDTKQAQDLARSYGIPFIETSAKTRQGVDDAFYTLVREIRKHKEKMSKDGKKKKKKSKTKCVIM
KRAS G12C-BRAF complex, sequence (P62937 whole entry): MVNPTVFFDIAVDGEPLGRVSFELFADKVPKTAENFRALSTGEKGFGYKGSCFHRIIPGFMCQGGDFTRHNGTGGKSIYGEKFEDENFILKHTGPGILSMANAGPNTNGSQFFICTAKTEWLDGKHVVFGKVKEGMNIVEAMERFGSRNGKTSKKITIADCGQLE

Row | Compound | IC50 [1] | IC50 [2] | IC50 [3] | IC50 [4] | IC50 [5] | IC50 [6] | IC50 [7]
1 | CO[C@@H](C)c1ncc(N2CCN(CC(F)(F)F)CC2)cc1-c1c2c3cc(cc4c3n1CCC4)-c1csc(n1)C[C@H](NC(=O)[C@H]1C[C@@H]1c1cccnc1)C(=O)N1CCC[C@H](N1)C(=O)OCC(C)(C)C2 (atropisomer, axis not shown; (M)) [Example 90, (1S,2S)-N-[(7S,13S)-(20M)-20-[2-[(1S)-1-methoxyethyl]-5-[4-(2,2,2-trifluoroethyl)piperazin-1-yl]-3-pyridyl]-17,17-dimethyl-8,14-dioxo-15-oxa-4-thia-9,21,30,31-tetrazahexacyclo[23.3.1.1^2,5.1^9,13.0^19,27.0^21,26]hentriaconta-1 (28),2,5 (31), 19,25 (29),26-hexaen-7-yl]-2-(3-pyridyl)cyclopropanecarboxamide] | 0.8 nM | 16.8 nM | 3.3 nM | 1.7 nM | 0.6 nM | 9.4 nM | 6.4 nM
2 | CO[C@@H](C)c1ncc(N2CCN3CCOC[C@@H]3C2)cc1-c1c2c3cc(cc4c3n1CCC4)-c1csc(n1)C[C@H](NC(=O)[C@H]1C[C@@H]1C)C(=O)N1CCC[C@H](N1)C(=O)OCC(C)(C)C2 (atropisomer, axis not shown; (M)) [Example 25, (1S,2S)-N-[(7S,13S)-(20M)-20-[5-[(9αS)-3,4,6,7,9,9a-hexahydro-1H-pyrazino[2,1-c][1,4]oxazin-8-yl]-2-[(1S)-1-methoxyethyl]-3-pyridyl]-17,17-dimethyl-8,14-dioxo-15-oxa-4-thia-9,21,30,31-tetrazahexacyclo[23.3.1.1^2,5.1^9,13.0^19,27.0^21,26]hentriaconta-1 (28),2,5 (31),19,25 (29),26-hexaen-7-yl]-2-methyl-cyclopropanecarboxamide] | 1.8 nM | 32.6 nM | 6.7 nM | 1 nM | 0.8 nM | 11.3 nM | 32.6 nM
3 | CO[C@@H](C)c1ncc(N2CCN(C)CC2)cc1-c1c2c3cc(cc4c3n1CCC4)-c1csc(n1)C[C@H](NC(=O)[C@H]1C[C@@H]1C)C(=O)N1CCC[C@H](N1)C(=O)OCC(C)(C)C2 (atropisomer, axis not shown; (M)) [Example 2, (1S,2S)-N-[(7S,13S)-(20M)-20-[2-[(1S)-1-methoxyethyl]-5-(4-methylpiperazin-1-yl)-3-pyridyl]-17,17-dimethyl-8,14-dioxo-15-oxa-4-thia-9,21,30,31-tetrazahexacyclo[23.3.1.1^2,5.1^9,13.0^19,27.0^21,26]hentriaconta-1 (28),2,5 (31), 19,25 (29),26-hexaen-7-yl]-2-methyl-cyclopropanecarboxamide] | 1.2 nM | 29.9 nM | 10.1 nM | 3.4 nM | 1.4 nM | 3 nM | 28.8 nM
4 | CO[C@@H](C)c1ncc(N2CCN3CCOC[C@@H]3C2)cc1-c1c2c3cc(cc4c3n1CCC4)-c1csc(n1)C[C@H](NC(=O)[C@H]1C[C@@H]1C(F)F)C(=O)N1CCC[C@H](N1)C(=O)OCC(C)(C)C2 (atropisomer, axis not shown; (M)) [Example 41, (1S,2S)-N-[(7S,13S)-(20M)-20-[5-[(9αS)-3,4,6,7,9,9a-hexahydro-1H-pyrazino[2,1-c][1,4]oxazin-8-yl]-2-[(1S)-1-methoxyethyl]-3-pyridyl]-17,17-dimethyl-8,14-dioxo-15-oxa-4-thia-9,21,30,31-tetrazahexacyclo[23.3.1.1^2,5.1^9,13.0^19,27.0^21,26]hentriaconta-1 (28),2,5 (31),19,25 (29),26-hexaen-7-yl]-2-(difluoromethyl)cyclopropanecarboxamide] | 0.9 nM | 14 nM | 3.6 nM | 0.4 nM | 0.4 nM | 4.8 nM | 23.8 nM
5 | CO[C@@H](C)c1ncc(N2CCOCC2)cc1-c1c2c3cc(cc4c3n1CCC4)-c1csc(n1)C[C@H](NC(=O)[C@H]1C[C@@H]1C(F)F)C(=O)N1CCC[C@H](N1)C(=O)OCC(C)(C)C2 (atropisomer, axis not shown; (M)) [Example 6, (1S,2S)-2-(difluoromethyl)-N-[(7S,13S)-(20M)-20-[2-[(1S)-1-methoxyethyl]-5-morpholino-3-pyridyl]-17,17-dimethyl-8,14-dioxo-15-oxa-4-thia-9,21,30,31-tetrazahexacyclo[23.3.1.1^2,5.1^9,13.0^19,27.0^21,26]hentriaconta-1 (28),2,5 (31), 19,25 (29),26-hexaen-7-yl]cyclopropanecarboxamide] | 1.6 nM | 19.4 nM | 3 nM | 1.4 nM | 0.8 nM | 5.6 nM | 11.1 nM
6 | CO[C@@H](C)c1ncc(N2CCOCC2)cc1-c1c2c3cc(cc4c3n1CCC4)-c1csc(n1)C[C@H](NC(=O)[C@@H]1C[C@H]1C1CC1)C(=O)N1CCC[C@H](N1)C(=O)OCC(C)(C)C2 (atropisomer, axis not shown; (M)) [Example 37, (1R,2S)-2-cyclopropyl-N-[(7S,13S)-(20M)-20-[2-[(1S)-1-methoxyethyl]-5-morpholino-3-pyridyl]-17,17-dimethyl-8,14-dioxo-15-oxa-4-thia-9,21,30,31-tetrazahexacyclo[23.3.1.1^2,5.1^9,13.0^19,27.0^21,26]hentriaconta-1 (29),2,5 (31),19,25,27-hexaen-7-yl]cyclopropanecarboxamide] | 2.1 nM | 28.3 nM | 7.8 nM | 0.9 nM | 0.6 nM | 9.1 nM | 20.5 nM
7 | CO[C@@H](C)c1ncc(N2CCN(C)CC2)cc1-c1c2c3cc(cc4c3n1CCO4)-c1csc(n1)C[C@H](NC(=O)[C@H]1[C@@H]3COC[C@@H]31)C(=O)N1CCC[C@H](N1)C(=O)OCC(C)(C)C2 (atropisomer, axis not shown; (M)) [Example 35, (1S,5R,6r)-N-[(7S,13S)-(20M)-20-[2-[(1S)-1-methoxyethyl]-5-(4-methylpiperazin-1-yl)-3-pyridyl]-17,17-dimethyl-8,14-dioxo-15,24-dioxa-4-thia-9,21,30,31-tetrazahexacyclo[23.3.1.1^2,5.1^9,13.0^19,27.0^21,26]hentriaconta-1 (28),2,5 (31), 19,25 (29),26-hexaen-7-yl]-3-oxabicyclo[3.1.0]hexane-6-carboxamide] | 1 nM | 13 nM | 4.3 nM | 1 nM | < 0.6 nM | 4.7 nM | 14.5 nM
8 | CO[C@@H](C)c1ncc(N2CCN3CCCC[C@@H]3C2)cc1-c1c2c3cc(cc4c3n1CCC4)-c1csc(n1)C[C@H](NC(=O)[C@H]1C[C@@H]1c1cncnc1)C(=O)N1CCC[C@H](N1)C(=O)OCC(C)(C)C2 (atropisomer, axis not shown; (M)) [Example 103, (1S,2S)-N-[(7S,13S)-(20M)-20-[5-[(9αR)-1,3,4,6,7,8,9,9a-octahydropyrido[1,2-a]pyrazin-2-yl]-2-[(1S)-1-methoxyethyl]-3-pyridyl]-17,17-dimethyl-8,14-dioxo-15-oxa-4-thia-9,21,30,31-tetrazahexacyclo[23.3.1.1^2,5.1^9,13.0^19,27.0^21,26]hentriaconta-1 (28),2,5 (31),19,25 (29),26-hexaen-7-yl]-2-pyrimidin-5-yl-cyclopropanecarboxamide] | 0.4 nM | 5.2 nM | 1.3 nM | 0.7 nM | 0.7 nM | 2.4 nM | 6 nM
9 | CO[C@@H](C)c1ncc(N2CCN(CC(F)F)CC2)cc1-c1c2c3cc(cc4c3n1CCC4)-c1csc(n1)C[C@H](NC(=O)[C@H]1[C@H](C)[C@@H]1C)C(=O)N1CCC[C@H](N1)C(=O)OCC(C)(C)C2 (atropisomer, axis not shown) [Example 109, (1r,2R,3S)-N-[(7S,13S)-20-[5-[4-(2,2-difluoroethyl)piperazin-1-yl]-2-[(1S)-1-methoxyethyl]-3-pyridyl]-17,17-dimethyl-8,14-dioxo-15-oxa-4-thia-9,21,30,31-tetrazahexacyclo[23.3.1.1^2,5.1^9,13.0^19,27.0^21,26]hentriaconta-1 (28),2,5 (31), 19,25 (29),26-hexaen-7-yl]-2,3-dimethyl-cyclopropanecarboxamide] | 0.6 nM | 5.1 nM | 2.8 nM | 0.9 nM | 0.3 nM | 4.1 nM | 6 nM
10 | CO[C@@H](C)c1ncc(N2CCN(C)CC2)cc1-c1c2c3cc(cc4c3n1CC(F)(F)C4)-c1csc(n1)C[C@H](NC(=O)[C@H]1C[C@@H]1c1cccnc1)C(=O)N1CCC[C@H](N1)C(=O)OCC(C)(C)C2 (atropisomer, axis not shown; (M)) [Example 92] | 0.7 nM | 8.8 nM | 2.5 nM | 1.4 nM | 1 nM | 6 nM | 16 nM
